Consider 4 compounds from paper PMC9313566 (Basic & Clinical Pharmacology & Toxicology, 2022).

haemoglobin (Hb), sequence (P69905 2-142): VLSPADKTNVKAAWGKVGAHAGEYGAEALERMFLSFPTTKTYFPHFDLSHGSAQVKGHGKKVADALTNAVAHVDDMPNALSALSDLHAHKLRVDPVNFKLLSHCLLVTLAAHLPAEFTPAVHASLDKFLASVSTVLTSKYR
haemoglobin (Hb), sequence (P68871 2-147): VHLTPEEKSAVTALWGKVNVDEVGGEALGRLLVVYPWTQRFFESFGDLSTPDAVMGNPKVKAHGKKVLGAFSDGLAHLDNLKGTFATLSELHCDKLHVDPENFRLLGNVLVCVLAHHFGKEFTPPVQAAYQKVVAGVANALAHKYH

This experiment concerns the target haemoglobin (Hb) (Homo sapiens, UniProt P68871+P69905). Description: SPR. In kind it is binding.
`C/C1=C\CC[C@H](C)C(=O)C[C@@H](C(C)C)C(=O)C1` [curdione] returned a Kd of 3.8 µM.
To `C/C1=C\Cc2c(C)coc2C/C(C)=C/CC1` [furanodiene] belongs 18.2 µM.
To `CC(C)=C1C/C=C(\C)CC/C=C(\C)CC1=O` [germacrone] belongs 75.4 µM.
`C=C[C@]1(C)CC[C@@H](C(=C)C)C[C@H]1C(=C)C` [β-elemene]: the Kd turned out to be 2.27 µM.

In general, Kd refers to the equilibrium constant for the complex coming apart. Lower therefore signals higher affinity.
